{"source": "paper PMC7590683", "about": "“Xanthine oxidase inhibitory activity of a new isocoumarin obtained from Marantodes pumilum var. pumila leaves” (BMC Complementary Medicine and Therapies, 2020)", "key": {"xanthine oxidase [1]": {"molecular_target": "T1, xanthine oxidase (Bos taurus, UniProt P80457)", "T1 construct": "xanthine oxidase (cow’s milk) were purchased from Sigma-Aldrich Chemicals; purchased Sigma-Aldrich Chemicals (St. Louis, MO, USA); host or cells: cow's milk (natural source)", "T1 sequence (P80457 whole entry)": "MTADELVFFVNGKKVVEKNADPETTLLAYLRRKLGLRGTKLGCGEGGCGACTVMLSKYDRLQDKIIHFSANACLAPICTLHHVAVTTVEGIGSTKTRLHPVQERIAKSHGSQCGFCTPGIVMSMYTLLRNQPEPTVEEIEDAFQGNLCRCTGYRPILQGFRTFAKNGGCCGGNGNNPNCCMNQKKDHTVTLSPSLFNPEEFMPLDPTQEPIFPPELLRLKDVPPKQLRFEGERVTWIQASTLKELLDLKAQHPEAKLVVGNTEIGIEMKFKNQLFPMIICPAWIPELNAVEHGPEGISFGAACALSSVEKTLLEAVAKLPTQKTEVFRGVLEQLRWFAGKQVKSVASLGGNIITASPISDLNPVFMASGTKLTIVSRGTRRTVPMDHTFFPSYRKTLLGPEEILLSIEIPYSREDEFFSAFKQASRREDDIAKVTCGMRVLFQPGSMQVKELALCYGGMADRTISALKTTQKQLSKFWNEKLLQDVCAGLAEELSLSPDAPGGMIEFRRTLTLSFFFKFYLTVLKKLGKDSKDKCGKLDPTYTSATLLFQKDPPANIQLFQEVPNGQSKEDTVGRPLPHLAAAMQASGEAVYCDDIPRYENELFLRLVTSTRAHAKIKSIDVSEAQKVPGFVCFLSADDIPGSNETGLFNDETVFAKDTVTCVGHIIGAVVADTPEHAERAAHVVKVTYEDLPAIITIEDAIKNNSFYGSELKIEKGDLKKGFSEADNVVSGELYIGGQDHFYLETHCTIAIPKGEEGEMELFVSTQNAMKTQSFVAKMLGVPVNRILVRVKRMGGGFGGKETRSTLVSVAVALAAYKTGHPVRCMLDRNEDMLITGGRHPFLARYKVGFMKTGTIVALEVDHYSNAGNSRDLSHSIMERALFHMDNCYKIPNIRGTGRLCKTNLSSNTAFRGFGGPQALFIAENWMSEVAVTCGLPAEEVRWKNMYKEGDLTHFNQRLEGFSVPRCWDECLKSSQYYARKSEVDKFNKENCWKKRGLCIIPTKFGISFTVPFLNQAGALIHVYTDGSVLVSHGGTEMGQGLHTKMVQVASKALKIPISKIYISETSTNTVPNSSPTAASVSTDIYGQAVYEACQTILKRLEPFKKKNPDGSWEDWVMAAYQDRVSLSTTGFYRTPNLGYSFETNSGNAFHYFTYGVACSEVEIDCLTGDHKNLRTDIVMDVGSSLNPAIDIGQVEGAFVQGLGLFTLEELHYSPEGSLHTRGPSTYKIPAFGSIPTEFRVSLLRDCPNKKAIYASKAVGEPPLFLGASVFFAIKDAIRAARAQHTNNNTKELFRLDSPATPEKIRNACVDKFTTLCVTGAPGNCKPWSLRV", "experiment": "In vitro xanthine oxidase inhibitory assay", "assay_type": "biochemical, cow", "settings": "for inhibition at 6.25 µg/mL: 6.25 μg/mL; for inhibition at 12.5 µg/mL: 12.5 μg/mL; for inhibition at 25 µg/mL: 25 μg/mL; for inhibition at 50 µg/mL: 50 μg/mL; for IC50: mean ± S.E.M., n = 3, read-out: IC50 value of xanthine oxidase inhibition (converted)", "description": "The xanthine oxidase inhibitory assay was carried out using a previously reported method with slight modifications. […] This was followed by dilution with potassium phosphate buffer (0.05 M, pH 7.5) to achieve the desired concentrations. Each test solution contained 0.5% DMSO. The assay was performed in triplicates in a 96-well microplate. […] Then, 100 μL of substrate solution, xanthine (0.15 mM, pH 7.5), was added before further incubating at 25 °C for 10 min. The final assay mixture was spectrophotometrically measured at 295 nm. Xanthine oxidase inhibitory activity was expressed as the percentage of xanthine oxidase inhibition and calculated using the following formula: %Xanthine Oxidase Inhibition=A−B−C−D/A−B×100"}, "xanthine oxidase [2]": {"tested_on": "xanthine oxidase", "parameters": "method as in PMID 18201686", "settings": "cited from earlier work"}, "xanthine oxidase [3]": {"tested_on": "xanthine oxidase", "parameters": "method as in PMID 8572586", "settings": "cited from earlier work"}, "xanthine oxidase [4]": {"tested_on": "xanthine oxidase", "parameters": "method as in PMID 30189275", "settings": "better than allopurinol; cited from earlier work"}, "[5]": {"settings": "read-out: Percentage of xanthine oxidase inhibition"}, "[6]": {"settings": "100 μg/mL, read-out: Percentage of xanthine oxidase inhibition"}}, "note": "Like-named read-outs stand apart in the source and are kept apart here.", "data": [{"smiles": "Oc1ncnc2[nH]ncc12", "note": "[Allopurinol, allopurinol, reference compound]", "values": [{"measurement": "inhibition at 0.0064 µg/mL", "setting": "xanthine oxidase [1]; [5]", "result": 4.12, "unit": "%"}, {"measurement": "inhibition at 0.032 µg/mL", "setting": "xanthine oxidase [1]; [5]", "result": 17.8, "unit": "%"}, {"measurement": "inhibition at 0.16 µg/mL", "setting": "xanthine oxidase [1]; [5]", "result": 29.5, "unit": "%"}, {"measurement": "inhibition at 0.8 µg/mL", "setting": "xanthine oxidase [1]; [5]", "result": 93.7, "unit": "%"}, {"measurement": "inhibition at 4 µg/mL", "setting": "xanthine oxidase [1]; [5]", "result": 98.9, "unit": "%"}, {"measurement": "inhibition at 20 µg/mL", "setting": "xanthine oxidase [1]; [5]", "result": 99, "unit": "%"}, {"measurement": "inhibition at 100 µg/mL", "setting": "xanthine oxidase [1]; [5]", "result": 99.8, "unit": "%"}]}, {"smiles": "COC1=CC(=O)C(O)=C(CCCCCCC/C=C\\CCCCCCCC2=C(O)C(=O)C=C(OC)C2=O)C1=O", "note": "[Compound 2, Ardisiaquinone A]", "values": [{"measurement": "inhibition at 6.25 µg/mL", "setting": "xanthine oxidase [1]; [5]", "result": "9.11 ± 0.28", "unit": "%"}, {"measurement": "inhibition at 12.5 µg/mL", "setting": "xanthine oxidase [1]; [5]", "result": "14.5 ± 0.45", "unit": "%"}, {"measurement": "inhibition at 25 µg/mL", "setting": "xanthine oxidase [1]; [5]", "result": "36.31 ± 0.08", "unit": "%"}, {"measurement": "inhibition at 50 µg/mL", "setting": "xanthine oxidase [1]; [5]", "result": "74.08 ± 0.5", "unit": "%"}, {"measurement": "xanthine oxidase inhibitory activity (in words)", "setting": "xanthine oxidase [1]; isolated compounds", "result": "low activity"}, {"measurement": "IC50", "setting": "xanthine oxidase [1]", "result": 59, "unit": "µM"}]}, {"smiles": "O=c1ccc2cc(O)c(O)cc2o1", "note": "[Esculetin]", "values": [{"measurement": "mode of inhibition against xanthine oxidase", "setting": "xanthine oxidase [2]", "result": "competitive inhibition"}, {"measurement": "relative potency among selected coumarins against xanthine oxidase", "setting": "xanthine oxidase [2]", "result": "most potent inhibitor"}, {"measurement": "xanthine oxidase inhibitory activity (in words)", "setting": "xanthine oxidase [3]", "result": "strong"}]}, {"smiles": "CCCC/C=C\\CCCCCCCCCC1=C(O)C(=O)C=C(OC)C1=O", "note": "[Compound 3, Maesanin]", "values": [{"measurement": "inhibition at 100 µg/mL", "setting": "xanthine oxidase [1]; [5]", "result": 0, "unit": "%"}]}, {"smiles": "CCCCCCCCCCCCCCCCC(=O)O", "note": "[Compound 6, Margaric acid]", "values": [{"measurement": "inhibition at 100 µg/mL", "setting": "xanthine oxidase [1]; [6]", "result": 0, "unit": "%"}]}, {"smiles": "Cc1cc(=O)oc2cc(O)c(O)cc12", "note": "[7-hydroxy-4-methylesculetin]", "values": [{"measurement": "mode of inhibition against xanthine oxidase", "setting": "xanthine oxidase [2]", "result": "competitive inhibition"}]}, {"smiles": "CCCCCCCCCCCCCCCCCCCCCCCC", "note": "[Compound 5, Tetracosane]", "values": [{"measurement": "inhibition at 100 µg/mL", "setting": "xanthine oxidase [1]; [6]", "result": 0, "unit": "%"}]}, {"smiles": "O=C1CCc2ccccc2O1", "note": "[dihydrocoumarin]", "values": [{"measurement": "mode of inhibition against xanthine oxidase", "setting": "xanthine oxidase [2]", "result": "competitive inhibition"}]}, {"smiles": "O=c1oc2cc(O)cc(O)c2cc1-c1cccc(O)c1", "note": "[5,7-dihydroxy-3-(3-hydroxyphenyl) coumarin]", "values": [{"measurement": "xanthine oxidase inhibitory activity relative to allopurinol", "setting": "xanthine oxidase [4]", "result": 7, "unit": "fold"}]}, {"smiles": "O=c1ccc2ccccc2o1", "note": "[coumarin]", "values": [{"measurement": "mode of inhibition against xanthine oxidase", "setting": "xanthine oxidase [2]", "result": "competitive inhibition"}]}, {"smiles": "O=c1cc(O)c2ccccc2o1", "note": "[4-hydroxycoumarin]", "values": [{"measurement": "mode of inhibition against xanthine oxidase", "setting": "xanthine oxidase [2]", "result": "competitive inhibition"}]}, {"smiles": "CC[C@H](/C=C/[C@@H](C)[C@H]1CC[C@H]2[C@@H]3CC=C4C[C@@H](O)CC[C@]4(C)[C@H]3CC[C@]12C)C(C)C", "note": "[Compound 4, Stigmasterol]", "values": [{"measurement": "inhibition at 100 µg/mL", "setting": "xanthine oxidase [1]; [6]", "result": 0, "unit": "%"}]}, {"smiles": "O=c1ccc2ccc(O)cc2o1", "note": "[7-hydroxycoumarin]", "values": [{"measurement": "mode of inhibition against xanthine oxidase", "setting": "xanthine oxidase [2]", "result": "competitive inhibition"}]}, {"smiles": "COc1cc2ccc(=O)oc2cc1O", "note": "[scopoletin]", "values": [{"measurement": "mode of inhibition against xanthine oxidase", "setting": "xanthine oxidase [2]", "result": "competitive inhibition"}]}, {"smiles": "COc1cc(O)c(C)c2c(=O)oc(O)c(C)c12", "note": "[Compound 1, 3,7-dihydroxy-5-methoxy-4,8-dimethyl-isocoumarin]", "values": [{"measurement": "inhibition at 0.39 µg/mL", "setting": "xanthine oxidase [1]; 0.39 μg/mL, read-out: Percentage of xanthine oxidase inhibition", "result": "39.6 ± 0.68", "unit": "%"}, {"measurement": "inhibition at 0.78 µg/mL", "setting": "xanthine oxidase [1]; 0.78 μg/mL, read-out: Percentage of xanthine oxidase inhibition", "result": "54.14 ± 0.34", "unit": "%"}, {"measurement": "inhibition at 1.56 µg/mL", "setting": "xanthine oxidase [1]; 1.56 μg/mL, read-out: Percentage of xanthine oxidase inhibition", "result": "66.49 ± 0.05", "unit": "%"}, {"measurement": "inhibition at 3.13 µg/mL", "setting": "xanthine oxidase [1]; 3.13 μg/mL, read-out: Percentage of xanthine oxidase inhibition", "result": "76.17 ± 0.52", "unit": "%"}, {"measurement": "inhibition at 6.25 µg/mL", "setting": "xanthine oxidase [1]; [5]", "result": "86.02 ± 0.14", "unit": "%"}, {"measurement": "inhibition at 12.5 µg/mL", "setting": "xanthine oxidase [1]; [5]", "result": "91.75 ± 0.22", "unit": "%"}, {"measurement": "inhibition at 25 µg/mL", "setting": "xanthine oxidase [1]; [5]", "result": "95.04 ± 0.86", "unit": "%"}, {"measurement": "inhibition at 50 µg/mL", "setting": "xanthine oxidase [1]; [5]", "result": "96.91 ± 0.06", "unit": "%"}, {"measurement": "IC50", "setting": "xanthine oxidase [1]", "result": 2.79, "unit": "µM"}]}]}
